Experiment: in vitro study of vegetable oil, water and cyclodextrin: band of wax-like complex
Type: physicochemical
Conditions: vegetable oil 4 g, water 6 g, varying amounts of cyclodextrin (100-2,000 mg), centrifuged
Protocol: FIG. 9A-9C depicts the results of an in vitro study of vegetable oil (4 g), water (6 g) (with added food coloring for contrast) and varying amounts of (A) α-cyclodextrin (100-2,000 mg, right to left), (B) β-cyclodextrin or (C) γ-cyclodextrin. A band of “wax-like” material layered between the oil and aqueous phases is apparent in the tubes. […] Note the increasing size (right to left) of a white layer of un-reacted α-cyclodextrin in the bottom of the tubes. This material is displaced from solution by either the oil or the α-cyclodextrin-oil complex. These tubes were centrifuged in order to improve the definition of the layers. The “wax-like” complex is of such a consistency that all of the tubes except for the furthest two to the right can be inverted without leakage of the aqueous phase around the complex.
FIGS. 9A-9C depict the results of an in vitro study of vegetable oil (4 g), water (6 g) (with added food coloring for contrast) and varying amounts of (A) α-cyclodextrin (100-2,000 mg, right to left), (B) β-cyclodextrin or (C) γ-cyclodextrin. A band of “wax-like” material layered between the oil and aqueous phases is apparent in the tubes. […] Note the increasing size (right to left) of a white layer of un-reacted α-cyclodextrin in the bottom of the tubes. This material is displaced from solution by either the oil or the α-cyclodextrin-oil complex. These tubes were centrifuged in order to improve the definition of the layers. The “wax-like” complex is of such a consistency that all of the tubes in 9A except for the furthest two to the right can be inverted without leakage of the aqueous phase around the complex.
Thus one would not have expected α-cyclodextrin to complex triglyceride molecules because the molecules would not fit within the pore of the α α-cyclodextrin. […] The white substance in the bottom of the tubes is precipitated cyclodextrin.

Row | Structure (SMILES) | band of wax-like material (complexed fat) between oil and aqueous phases
1 | OC[C@H]1O[C@@H]2O[C@H]3[C@H](O)[C@@H](O)[C@@H](O[C@H]4[C@H](O)[C@@H](O)[C@@H](O[C@H]5[C@H](O)[C@@H](O)[C@@H](O[C@H]6[C@H](O)[C@@H](O)[C@@H](O[C@H]7[C@H](O)[C@@H](O)[C@@H](O[C@H]8[C@H](O)[C@@H](O)[C@@H](O[C@H]1[C@H](O)[C@H]2O)O[C@@H]8CO)O[C@@H]7CO)O[C@@H]6CO)O[C@@H]5CO)O[C@@H]4CO)O[C@@H]3CO [β-cyclodextrin] | significantly less
2 | OC[C@H]1O[C@@H]2O[C@H]3[C@H](O)[C@@H](O)[C@@H](O[C@H]4[C@H](O)[C@@H](O)[C@@H](O[C@H]5[C@H](O)[C@@H](O)[C@@H](O[C@H]6[C@H](O)[C@@H](O)[C@@H](O[C@H]7[C@H](O)[C@@H](O)[C@@H](O[C@H]8[C@H](O)[C@@H](O)[C@@H](O[C@H]9[C@H](O)[C@@H](O)[C@@H](O[C@H]1[C@H](O)[C@H]2O)O[C@@H]9CO)O[C@@H]8CO)O[C@@H]7CO)O[C@@H]6CO)O[C@@H]5CO)O[C@@H]4CO)O[C@@H]3CO [γ-cyclodextrin] | bearly noticeable

Reference: patent publication US9326539B2, “Compositions comprising dietary fat complexers and methods for their use” (Soho Flordis International Pty. Ltd., priority 2002, dated 2016)
